# Laboratory results from US10829481B2, “Benzimidazole derivatives as modulators of ROR-gamma” (Vitae Pharmaceuticals, LLC, priority 2016, dated 2020).
# pIC50, pKi: −log10 of the molar value.
# Key:
# [1] = biological target: full-length RORγt in Jurkat cells (Homo sapiens (Human), UniProt P51449); experiment: RORγt 5×RORE Assay in Jurkat Cells (Assay 2); format: cell-based; details: 5×RORE Nanoluc luciferase reporter
# [2] = biological target: recombinant RORγ Ligand Binding Domain (LBD) protein (Homo sapiens (Human), UniProt P51449); experiment: Radio-Ligand RORγ Binding Assay (Assay 1); details: competition with 25-hydroxy [26,27-3H]-cholesterol, SPA
# recombinant RORγ Ligand Binding Domain (LBD) protein, sequence (P51449 269-508): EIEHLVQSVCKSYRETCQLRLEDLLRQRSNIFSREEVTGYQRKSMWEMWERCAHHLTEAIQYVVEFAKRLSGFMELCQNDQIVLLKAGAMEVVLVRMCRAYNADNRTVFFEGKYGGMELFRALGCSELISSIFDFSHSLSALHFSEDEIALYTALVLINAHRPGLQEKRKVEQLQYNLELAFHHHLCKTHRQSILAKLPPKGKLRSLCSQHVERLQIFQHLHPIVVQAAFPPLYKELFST
# Summary of the method: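 His-GST-fused RORγ ligand-binding domain (24 nM solution) competed between compounds and tritiated 25-hydroxycholesterol (8.6 nM solution), read by SPA after brief rt incubations in pH 7.4 HEPES/glycerol/detergent buffer. Four-parameter curve fitting gave IC50 at inflection, converted to Ki using radioligand concentration and KD.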
# full-length RORγt in Jurkat cells, sequence (P51449 other isoform, or with tags, fused parts or gaps): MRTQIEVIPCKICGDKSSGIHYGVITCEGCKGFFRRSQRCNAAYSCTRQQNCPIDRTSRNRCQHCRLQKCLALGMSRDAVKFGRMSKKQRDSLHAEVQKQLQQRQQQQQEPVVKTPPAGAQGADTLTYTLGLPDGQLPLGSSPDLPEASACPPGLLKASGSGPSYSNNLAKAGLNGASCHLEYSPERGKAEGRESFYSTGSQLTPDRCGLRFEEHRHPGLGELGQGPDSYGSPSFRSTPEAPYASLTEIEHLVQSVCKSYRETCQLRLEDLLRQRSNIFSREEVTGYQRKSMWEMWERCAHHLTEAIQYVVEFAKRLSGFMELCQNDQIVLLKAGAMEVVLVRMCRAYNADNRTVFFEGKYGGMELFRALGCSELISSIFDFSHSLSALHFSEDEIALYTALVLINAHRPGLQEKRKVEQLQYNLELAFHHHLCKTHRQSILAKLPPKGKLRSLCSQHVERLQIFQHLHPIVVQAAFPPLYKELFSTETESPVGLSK
pIC50 [1],pKi [2],SMILES
6.00 to 7.00,> 7.00,"CCS(=O)(=O)c1ccc(CNC(=O)c2ccc3c(c2)nc(C2CC2)n3Cc2ccccc2OC(F)(F)F)cc1 [I-106, 2-cyclopropyl-N-(4-(ethylsulfonyl)benzyl)-1-(2-(trifluoromethoxy)benzyl)-1H-benzo[d]imidazole-5-carboxamide]"
> 7.00,> 7.00,"CCS(=O)(=O)c1ccc(CNC(=O)c2ccc3c(c2)nc(C2CC2)n3Cc2cccc(OC(F)(F)F)c2)cc1 [I-109, 2-cyclopropyl-N-(4-(ethylsulfonyl)benzyl)-1-(3-(trifluoromethoxy)benzyl)-1H-benzo[d]imidazole-5-carboxamide]"
> 7.00,> 7.00,"CCS(=O)(=O)c1ccc(CNC(=O)c2ccc3c(c2)nc(C2CC2)n3Cc2cccc(OC(F)F)c2)cc1 [I-113, 2-cyclopropyl-1-(3-(difluoromethoxy)benzyl)-N-(4-(ethylsulfonyl)benzyl)-1H-benzo[d]imidazole-5-carboxamide]"
> 7.00,> 7.00,"CCS(=O)(=O)c1ccc(CNC(=O)c2ccc3c(c2)nc(C2CC2)n3Cc2cc(OC)cc(OC(F)(F)F)c2)cc1 [I-115, 2-cyclopropyl-N-(4-(ethylsulfonyl)benzyl)-1-(3-methoxy-5-(trifluoromethoxy)benzyl)-1H-benzo[d]imidazole-5-carboxamide]"
> 7.00,> 7.00,"CCS(=O)(=O)c1ccc(CNC(=O)c2ccc3c(c2)nc(C2CC2)n3[C@@H](C)c2cccc3c2OC(F)(F)O3)cc1 [I-116, (S)-2-cyclopropyl-1-(1-(2,2-difluorobenzo[d][1,3]dioxol-4-yl)ethyl)-N-(4-(ethylsulfonyl)benzyl)-1H-benzo[d]imidazole-5-carboxamide]"
< 6.00,> 7.00,"CCS(=O)(=O)c1ccc(CNC(=O)c2ccc3c(c2)nc(C2CC2)n3Cc2cccc3c2OC(C)(C)C3)cc1 [I-118, 2-cyclopropyl-1-((2,2-dimethyl-2,3-dihydrobenzofuran-7-yl)methyl)-N-(4-(ethylsulfonyl)benzyl)-1H-benzo[d]imidazole-5-carboxamide]"
> 7.00,> 7.00,"CCS(=O)(=O)c1ccc(CNC(=O)c2ccc3c(c2)nc(C2CC2)n3Cc2cccc(OC)c2OC)cc1 [I-119, 2-cyclopropyl-1-(2,3-dimethoxybenzyl)-N-(4-(ethylsulfonyl)benzyl)-1H-benzo[d]imidazole-5-carboxamide]"
6.00 to 7.00,> 7.00,"O=C(O)CC1CCC(CNC(=O)c2ccc3c(c2)nc(C(F)(F)F)n3Cc2cccc3c2OC(F)(F)O3)CC1 (centres unmarked) [I-120, 2-(4-((1-((2,2-difluorobenzo[d][1,3]dioxol-4-yl)methyl)-2-(trifluoromethyl)-1H-benzo[d]imidazole-5-carboxamido)methyl)cyclohexyl)acetic acid]"
> 7.00,> 7.00,"N#Cc1ccc([C@H](CO)NC(=O)c2ccc3c(c2)nc(C(F)(F)F)n3Cc2cccc3c2OC(F)(F)O3)cc1 [I-122, (R)-N-(1-(4-cyanophenyl)-2-hydroxyethyl)-1-((2,2-difluorobenzo[d][1,3]dioxol-4-yl)methyl)-2-(trifluoromethyl)-1H-benzo[d]imidazole-5-carboxamide]"
> 7.00,> 7.00,"CCS(=O)(=O)c1ccc([C@H](CO)NC(=O)c2ccc3c(c2)nc(C(F)(F)F)n3Cc2cccc3c2OC(F)(F)O3)c(F)c1 [I-123, (R)-1-((2,2-difluorobenzo[d][1,3]dioxol-4-yl)methyl)-N-(1-(4-(ethylsulfonyl)-2-fluorophenyl)-2-hydroxyethyl)-2-(trifluoromethyl)-1H-benzo[d]imidazole-5-carboxamide]"
< 6.00,> 7.00,"COc1cc(Cn2c(C(F)(F)F)nc3cc(C(=O)NCc4ccc(S(=O)(=O)CCO)cc4)ccc32)cc(OC)c1 [I-124, 1-(3,5-dimethoxybenzyl)-N-(4-((2-hydroxyethyl)sulfonyl)benzyl)-2-(trifluoromethyl)-1H-benzo[d]imidazole-5-carboxamide]"
> 7.00,> 7.00,"CCS(=O)(=O)c1ccc(CNC(=O)c2ccc3c(c2)nc(C(F)(F)F)n3Cc2cccc3c2OC(F)(F)O3)c(O)c1 [I-126, 1-((2,2-difluorobenzo[d][1,3]dioxol-4-yl)methyl)-N-(4-(ethylsulfonyl)-2-hydroxybenzyl)-2-(trifluoromethyl)-1H-benzo[d]imidazole-5-carboxamide]"
> 7.00,> 7.00,"COC(=O)CS(=O)(=O)N1CCC(CNC(=O)c2ccc3c(c2)nc(C(F)(F)F)n3Cc2cccc3[nH]ncc23)CC1 [I-127, methyl 2-((4-((1-((1H-indazol-4-yl)methyl)-2-(trifluoromethyl)-1H-benzo[d]imidazole-5-carboxamido)methyl)piperidin-1-yl)sulfonyl)acetate]"
< 6.00,> 7.00,"CCS(=O)(=O)c1ccc(CNC(=O)c2ccc3c(c2)nc(C(F)(F)F)n3Cc2cc(OC)cc(OC)c2)nc1 [I-128, 1-(3,5-dimethoxybenzyl)-N-((5-(ethylsulfonyl)pyridin-2-yl)methyl)-2-(trifluoromethyl)-1H-benzo[d]imidazole-5-carboxamide]"

# More lines, now with the values behind:
SMILES,pIC50 [1],pKi [2]
"CCc1nc2cc(C(=O)NCc3ccc(S(=O)(=O)CC)cc3)ccc2n1[C@@H](C)c1cccc2c1OC(F)(F)O2 [I-125.1, (S)-1-(1-(2,2-difluorobenzo[d][1,3]dioxol-4-yl)ethyl)-2-ethyl-N-(4-(ethylsulfonyl)benzyl)-1H-benzo[d]imidazole-5-carboxamide]",< 6.00,> 7.00
"CCc1nc2cc(C(=O)NCc3ccc(S(=O)(=O)CC)cc3)ccc2n1[C@H](C)c1cccc2c1OC(F)(F)O2 [I-125.2, (R)-1-(1-(2,2-difluorobenzo[d][1,3]dioxol-4-yl)ethyl)-2-ethyl-N-(4-(ethylsulfonyl)benzyl)-1H-benzo[d]imidazole-5-carboxamide]",> 7.00,> 7.00
"CCS(=O)(=O)c1ccc([C@H](CO)NC(=O)c2ccc3c(c2)nc(C(F)(F)F)n3Cc2cccc3c2OC(F)(F)O3)nc1 [I-130.1, (R)-1-((2,2-difluorobenzo[d][1,3]dioxol-4-yl)methyl)-N-(1-(5-(ethylsulfonyl)pyridin-2-yl)-2-hydroxyethyl)-2-(trifluoromethyl)-1H-benzo[d]imidazole-5-carboxamide]",> 7.00,> 7.00
"CCS(=O)(=O)c1ccc([C@@H](CO)NC(=O)c2ccc3c(c2)nc(C(F)(F)F)n3Cc2cccc3c2OC(F)(F)O3)nc1 [I-130.2, (S)-1-((2,2-difluorobenzo[d][1,3]dioxol-4-yl)methyl)-N-(1-(5-(ethylsulfonyl)pyridin-2-yl)-2-hydroxyethyl)-2-(trifluoromethyl)-1H-benzo[d]imidazole-5-carboxamide]",> 7.00,> 7.00
"CCS(=O)(=O)c1ccc([C@H](CO)NC(=O)c2ccc3c(c2)nc(C(F)F)n3Cc2cccc3c2OC(F)(F)O3)nc1 [I-131.1, (R)-1-((2,2-difluorobenzo[d][1,3]dioxol-4-yl)methyl)-2-(difluoromethyl)-N-(1-(5-(ethylsulfonyl)pyridin-2-yl)-2-hydroxyethyl)-1H-benzo[d]imidazole-5-carboxamide]",> 7.00,> 7.00
"CCS(=O)(=O)c1ccc([C@@H](CO)NC(=O)c2ccc3c(c2)nc(C(F)F)n3Cc2cccc3c2OC(F)(F)O3)nc1 [I-131.2, (S)-1-((2,2-difluorobenzo[d][1,3]dioxol-4-yl)methyl)-2-(difluoromethyl)-N-(1-(5-(ethylsulfonyl)pyridin-2-yl)-2-hydroxyethyl)-1H-benzo[d]imidazole-5-carboxamide]",6.00 to 7.00,> 7.00
"CCS(=O)(=O)c1ccc([C@H](CO)NC(=O)c2ccc3c(c2)nc(C2CCC2)n3Cc2cccc3c2OC(F)(F)O3)nc1 [I-132.1, (R)-2-cyclobutyl-1-((2,2-difluorobenzo[d][1,3]dioxol-4-yl)methyl)-N-(1-(5-(ethylsulfonyl)pyridin-2-yl)-2-hydroxyethyl)-1H-benzo[d]imidazole-5-carboxamide]",> 7.00,> 7.00
"CCS(=O)(=O)c1ccc([C@@H](CO)NC(=O)c2ccc3c(c2)nc(C2CCC2)n3Cc2cccc3c2OC(F)(F)O3)nc1 [I-132.2, (S)-2-cyclobutyl-1-((2,2-difluorobenzo[d][1,3]dioxol-4-yl)methyl)-N-(1-(5-(ethylsulfonyl)pyridin-2-yl)-2-hydroxyethyl)-1H-benzo[d]imidazole-5-carboxamide]",> 7.00,> 7.00
"CCS(=O)(=O)c1ccc([C@H](CO)NC(=O)c2ccc3c(c2)nc(C2CC2)n3Cc2cccc3c2OC(F)(F)O3)nc1 [I-133.1, (R)-2-cyclopropyl-1-((2,2-difluorobenzo[d][1,3]dioxol-4-yl)methyl)-N-(1-(5-(ethylsulfonyl)pyridin-2-yl)-2-hydroxyethyl)-1H-benzo[d]imidazole-5-carboxamide]",> 7.00,> 7.00
"CCS(=O)(=O)c1ccc([C@H](CO)NC(=O)c2ccc3c(c2)nc(C2(F)CC2)n3Cc2cccc3c2OC(F)(F)O3)nc1 [I-134.1, (R)-1-((2,2-difluorobenzo[d][1,3]dioxol-4-yl)methyl)-N-(1-(5-(ethylsulfonyl)pyridin-2-yl)-2-hydroxyethyl)-2-(1-fluorocyclopropyl)-1H-benzo[d]imidazole-5-carboxamide]",> 7.00,> 7.00
"CCS(=O)(=O)c1ccc([C@@H](CO)NC(=O)c2ccc3c(c2)nc(C2(F)CC2)n3Cc2cccc3c2OC(F)(F)O3)nc1 [I-134.2, (S)-1-((2,2-difluorobenzo[d][1,3]dioxol-4-yl)methyl)-N-(1-(5-(ethylsulfonyl)pyridin-2-yl)-2-hydroxyethyl)-2-(1-fluorocyclopropyl)-1H-benzo[d]imidazole-5-carboxamide]",> 7.00,> 7.00
